Biological target: human APJ receptor (Homo sapiens (Human), UniProt P35414)
Assay: biochemical
Format: biochemical
Details: read-out: Activity hAPJ SPA EC50 IP
Summary of the method: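 Agonist-stimulated [35S]GTPγS (0.2 nM) binding was read by SPA after 90 min at room temperature. Buffer: 20 mM HEPES pH 7.5 with 5 mM MgCl2, 200 mM NaCl, 3 μM GDP, 0.1% BSA; membranes were from a stable human APJ CHO line. EC50 values are averages of independent runs, fitted by non-linear regression.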

Sequence of human APJ receptor (P35414 whole entry): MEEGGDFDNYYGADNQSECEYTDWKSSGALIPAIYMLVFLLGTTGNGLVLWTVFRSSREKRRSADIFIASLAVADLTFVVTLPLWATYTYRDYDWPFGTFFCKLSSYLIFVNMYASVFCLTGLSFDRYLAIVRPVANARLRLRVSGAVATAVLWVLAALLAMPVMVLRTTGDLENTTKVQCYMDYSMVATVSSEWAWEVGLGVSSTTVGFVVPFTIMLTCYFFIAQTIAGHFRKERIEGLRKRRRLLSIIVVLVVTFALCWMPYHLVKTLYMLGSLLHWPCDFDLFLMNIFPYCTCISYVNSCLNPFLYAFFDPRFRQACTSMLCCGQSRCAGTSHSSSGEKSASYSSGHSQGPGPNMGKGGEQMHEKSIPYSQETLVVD

Row | Compound | EC50
1 | COc1cccc(-c2nnc(NS(=O)(=O)[C@@H](C)[C@H](O)C3CC3)n2-c2c(OC)cccc2OC)n1 (single isomer, unassigned) [Example 439.0, (1R,2S)-1-cyclopropyl-N-(4-(2,6-dimethoxyphenyl)-5-(6-methoxy-2-pyridinyl)-4H-1,2,4-triazol-3-yl)-1-hydroxy-2-propanesulfonamide or (1S,2R)-1-cyclopropyl-N-(4-(2,6-dimethoxyphenyl)-5-(6-methoxy-2-pyridinyl)-4H-1,2,4-triazol-3-yl)-1-hydroxy-2-propanesulfonamide] | 110 nM
2 | CCO[C@H](c1ncc(F)cn1)[C@H](C)S(=O)(=O)Nc1nnc(-c2cccnc2)n1-c1c(OC)cccc1OC [Example 51.0, (1R,2S)-N-(4-(2,6-dimethoxyphenyl)-5-(3-pyridinyl)-4H-1,2,4-triazol-3-yl)-1-ethoxy-1-(5-fluoro-2-pyrimidinyl)-2-propanesulfonamide] | 0.71 nM
3 | CCOc1cccc(OC)c1-n1c(NS(=O)(=O)[C@@H](C)[C@H](OC)c2ncc(C)cn2)nnc1-c1cccc(OC)n1 (single isomer, unassigned) [Example 664.0, (1R,2S,P)—N-(4-(2-ethoxy-6-methoxyphenyl)-5-(6-methoxy-2-pyridinyl)-4H-1,2,4-triazol-3-yl)-1-methoxy-1-(5-methyl-2-pyrimidinyl)-2-propanesulfonamide or (1R,2S,M)-N-(4-(2-ethoxy-6-methoxyphenyl)-5-(6-methoxy-2-pyridinyl)-4H-1,2,4-triazol-3-yl)-1-methoxy-1-(5-methyl-2-pyrimidinyl)-2-propanesulfonamide] | 0.31 nM
4 | COc1cnc([C@@H](C)[C@H](C)S(=O)(=O)Nc2nnc(-c3cncc(C)c3)n2-c2c(F)cccc2F)cn1 [Example 794.0, (2S,3R)-N-(4-(2,6-difluorophenyl)-5-(5-methyl-3-pyridinyl)-4H-1,2,4-triazol-3-yl)-3-(5-methoxy-2-pyrazinyl)-2-butanesulfonamide] | 6.6 nM
5 | COc1cccc(OC)c1-n1c(NS(=O)(=O)CCc2ccc(F)cc2C#N)nnc1-c1cccc(=O)[nH]1 [Example 461.0, 2-(2-cyano-4-fluorophenyl)-N-(4-(2,6-dimethoxyphenyl)-5-(6-oxo-1,6-dihydro-2-pyridinyl)-4H-1,2,4-triazol-3-yl)ethanesulfonamide] | 670 nM
6 | COc1cccc(OC)c1-n1c(NS(=O)(=O)[C@@H](C)Cc2ncc(F)cn2)nnc1-c1ccccn1 (mixture of isomers) [Example 202.0, (2R)-N-(4-(2,6-dimethoxyphenyl)-5-(2-pyridinyl)-4H-1,2,4-triazol-3-yl)-1-(5-fluoro-2-pyrimidinyl)-2-propanesulfonamide and (2S)-N-(4-(2,6-dimethoxyphenyl)-5-(2-pyridinyl)-4H-1,2,4-triazol-3-yl)-1-(5-fluoro-2-pyrimidinyl)-2-propanesulfonamide] | 15.4 nM
7 | Cc1cncc(-c2nnc(NS(=O)(=O)[C@@H](C)[C@H](C)c3ncc(Cl)cn3)n2-c2c(F)cccc2F)c1 [Example 796.0, (2S,3R)-3-(5-chloro-2-pyrimidinyl)-N-(4-(2,6-difluorophenyl)-5-(5-methyl-3-pyridinyl)-4H-1,2,4-triazol-3-yl)-2-butanesulfonamide] | 1.1 nM
8 | COc1cccc(-c2nnc(NS(=O)(=O)[C@@H](C)[C@H](OC)c3ncc(C)cn3)n2-c2c(OC(F)F)cccc2OC(F)F)n1 [Example 41.0, (1R,2S)-N-(4-(2,6-bis(difluoromethoxy)phenyl)-5-(6-methoxypyridin-2-yl)-4H-1,2,4-triazol-3-yl)-1-methoxy-1-(5-methylpyrimidin-2-yl)propane-2-sulfonamide] | 0.22 nM
9 | COc1cccc(-c2nnc(NS(=O)(=O)C[C@H](O)c3ccc(F)cn3)n2-c2c(OC)cccc2OC)n1 (single isomer, unassigned) [Example 317.0, (2R)—N-(4-(2,6-dimethoxyphenyl)-5-(6-methoxy-2-pyridinyl)-4H-1,2,4-triazol-3-yl)-2-(5-fluoro-2-pyridinyl)-2-hydroxyethanesulfonamide or (2S)—N-(4-(2,6-dimethoxyphenyl)-5-(6-methoxy-2-pyridinyl)-4H-1,2,4-triazol-3-yl)-2-(5-fluoro-2-pyridinyl)-2-hydroxyethanesulfonamide] | 0.53 nM
10 | COc1cccc(OC)c1-n1c(NS(=O)(=O)[C@H](C)[C@@H](OC)c2ccc(C#N)cn2)nnc1-c1cncc(C)c1 (single isomer, unassigned) [Example 553.0] | 41 nM
11 | COc1cccc(-c2nnc(NS(=O)(=O)[C@@H](C)[C@H](OC)c3ncc(C)cn3)n2-c2c(Cl)cccc2Cl)n1 [Example 73.0, (1R,2S)-N-(4-(2,6-dichlorophenyl)-5-(6-methoxy-2-pyridinyl)-4H-1,2,4-triazol-3-yl)-1-methoxy-1-(5-methyl-2-pyrimidinyl)-2-propanesulfonamide] | 0.76 nM
12 | COc1cccc(OC)c1-n1c(NS(=O)(=O)[C@@H](C)[C@H](C)c2ncc(F)cn2)nnc1-c1cncc(C)c1 (single isomer, unassigned) [Example 237.0] | 14 nM
13 | COc1cccc(OC)c1-n1c(NS(=O)(=O)[C@H](C)[C@H](OC(C)C)c2cnc(C)cn2)nnc1-c1cncc(C)c1 (single isomer, unassigned) [Example 746.0, (1R,2R)-N-(4-(2,6-dimethoxyphenyl)-5-(5-methylpyridin-3-yl)-4H-1,2,4-triazol-3-yl)-1-isopropoxy-1-(5-methylpyrazin-2-yl)propane-2-sulfonamide or (1S,2S)-N-(4-(2,6-dimethoxyphenyl)-5-(5-methylpyridin-3-yl)-4H-1,2,4-triazol-3-yl)-1-isopropoxy-1-(5-methylpyrazin-2-yl)propane-2-sulfonamide] | 80 nM
14 | COc1cccc(-c2nnc(NS(=O)(=O)[C@@H](C)[C@H](O)c3ccc(F)cc3F)n2-c2c(OC)cccc2OC)n1 (single isomer, unassigned) [Example 281.0] | 43 nM
15 | COc1cccc(OC)c1-n1c(NS(=O)(=O)[C@@H](C)[C@@](C)(F)c2ncc(C#N)cn2)nnc1-c1cncc(C)c1 (single isomer, unassigned) [Example 537.0] | 57 nM
16 | COc1cccc(-c2nnc(NS(=O)(=O)[C@@H](C)[C@@H](O)C3CC(F)(F)C3)n2-c2c(OC)cccc2OC)n1 (single isomer, unassigned) [Example 723.0] | 2.5 nM
17 | COc1cccc(OC)c1-n1c(NS(=O)(=O)[C@@H](C)[C@H](OC)c2ncc(C3=CCOCC3)cn2)nnc1-c1cncc(C)c1 [Example 749.0, (1R,2S)-1-(5-(3,6-dihydro-2H-pyran-4-yl)pyrimidin-2-yl)-N-(4-(2,6-dimethoxyphenyl)-5-(5-methylpyridin-3-yl)-4H-1,2,4-triazol-3-yl)-1-methoxypropane-2-sulfonamide] | 15 nM
18 | COc1cccc(OC)c1-n1c(NS(=O)(=O)[C@H](C)[C@@H](OC)c2ccc(C#N)cn2)nnc1-c1cncc(C)c1 (single isomer, unassigned) [Example 554.0] | 2.7 nM
